Experimental data as given in patent publication US20080200436A1 (priority 2004, published 2008).

Experiments:
[1] = test system: VEGF RTK; settings: cited from earlier work
[2] = test system: LNCaP tumour xenografts; test: LNCaP Human Prostate Cancer Xenograft Model; format: in vivo, Swiss nude mice; settings: for tumour volume versus orchiectomy and control groups: P<0.001 versus each group
Method: Six to eight-week-old Swiss nude mice were given one injection in the anterior flank with 5×10^6 tumour cells suspended in 0.1 ml of serum-free medium with the addition of 100 μl of Matrigel. Once tumours were established, mice were randomized into control and treatment groups.
Mice were examined twice a week, and tumours were measured with calipers across the greatest two diameters. At the time of euthanasia, tumours were removed by dissection away from adjacent organs and structures and weighed on an analytical balance. For histologic analysis, tissue samples were fixed in 10% neutral buffered formalin and processed through graded ethanols and xylenes for paraffin embedding and staining using standard methods. For calculation of percent necrosis, 5 random fields per tumour were examined at low power (10×) from tumours harvested at 40 days. The necrotic area(s) in each field was/were circumscribed electronically using the tools available in the ImagePro computerized image analysis package (Media Cybernetics) to create an area. A human operator carried out this identification and circling of the necrotic area for all analyzed issues. Using the total area of the section as the denominator, the percentage of necrosis was evaluated for each field. To obtain an average for a whole experimental tumour group, the percent necrosis for each field was averaged across the total number of tumours in the group.
Repeated measure models were used for the analysis of the in vivo tumour volumes. Several covariance structures, including AR- 1 and random coefficient models, were used and all yielded similar conclusions. The analyses reported herein are based on a random coefficient model with robust estimates of the covariance matrix. Specific comparisons between treatment groups were made using F-test based on contrasts. Statistical analyses were carried out in SAS PROC MIXED; the plots were prepared in GAUSS 5.0. Error bars represent one standard error from the mean. Time from treatment initiation to the time that tumour volumes exceeded a cut-off value (a tumour volume of >300 mm^3) were estimated with Kaplan-Meier curves and compared across treatment groups with the log-rank test. Tumour volume cut-offs were used to avoid using a survival endpoint, which would have involved significant animal distress and to employ a threshold that was appropriate for comparing the tumour growth data across all groups.

COc1cc2c(Nc3ccc(Br)cc3F)ncnc2cc1OCC1CCN(C)CC1 [ZD6474, 4-(4-bromo-2-fluoroanilino)-6-methoxy-7-(1-methylpiperidin-4-ylmethoxy)quinazoline]
inhibition of VEGF RTK [1]: potent inhibitor
delay before tumour growth resumed after compound withdrawal ([2]; ZD6474 alone 50 mg/kg/day for 40 days, then withdrawn, normal mice): approximately 15 days
tumour volume versus orchiectomy and control groups ([2]; ZD6474 alone 50 mg/kg/day, after 38 days of treatment): significant differences in tumour volume
tumour volume versus orchiectomy group ([2]; ZD6474 alone 50 mg/kg/day, days 13 to 38 post-treatment, P<0.05): Statistically significant differences
percentage of necrosis ([2]; ZD6474 alone, 50 mg/kg/day once daily p.o., normal mice, tumours harvested at day 40, 5 tumours, vehicle control 31±7%): 48±5%
percentage of necrosis ([2]; combination of orchiectomy and ZD6474 50 mg/kg/day, tumours harvested at day 40, versus 51±5% in monotherapy, P=0.01): 73±6%
tumour volume versus orchiectomy and control groups ([2]; combination therapy group (ZD6474 50 mg/kg/day plus orchiectomy), after 38 days): significant differences were observed
rate of tumour growth after ZD6474 withdrawal versus untreated tumours ([2]; previously ZD6474 treated tumours, delay of approximately 15 days taken into account): no significant difference
